Test results as given in patent publication US20240199587A1, “HETEROCYCLIC COMPOUNDS” (Hoffmann-La Roche Inc., priority 2021, published 2024).

Target: T1, MAGL (Homo sapiens, UniProt Q99685)
T1 sequence (Q99685 1-303): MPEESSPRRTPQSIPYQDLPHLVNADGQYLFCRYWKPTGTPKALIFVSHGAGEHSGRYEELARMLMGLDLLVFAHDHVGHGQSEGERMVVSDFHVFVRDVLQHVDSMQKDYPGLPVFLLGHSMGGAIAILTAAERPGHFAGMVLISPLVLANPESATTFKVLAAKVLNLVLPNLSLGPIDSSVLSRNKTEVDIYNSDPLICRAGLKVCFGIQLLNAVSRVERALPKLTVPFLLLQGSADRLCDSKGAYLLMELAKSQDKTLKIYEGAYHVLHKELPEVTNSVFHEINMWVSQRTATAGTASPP
Assay: 2-AG assay (MAGL inhibitory activity, hydrolysis of 2-arachidonoylglycerol to arachidonic acid followed by mass spectrometry)
Type: biochemical
Conditions: 8 μM 2-arachidonoylglycerol, 15 min pre-incubation, 30 min incubation at RT, RapidFire MS readout
Procedure, shortened: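 Human MAGL ([…] final) pre-incubated 15 min at RT with compound in 50 mM TRIS, 1 mM EDTA, 0.01% Tween-20, 2.5% DMSO; 8 μM 2-AG then added for 30 min at RT. Acetonitrile quench with d8-arachidonic acid; arachidonic acid measured by RapidFire SPE–MS/MS, activity from arachidonic acid/d8 ratio.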

Row | IC50 | SMILES
1 | 744 nM | CNC(=O)[C@H](c1ccc(F)cc1)N1CCN(C(=O)N2CC3(CC(n4cnc(C5CC5)n4)C3)C2)CC1 [Example 330, (2S)-2-[4-[6-(3-cyclopropyl-1,2,4-triazol-1-yl)-2-azaspiro[3.3]heptane-2-carbonyl]piperazin-1-yl]-2-(4-fluorophenyl)-N-methyl-acetamide]
2 | 797 nM | Cn1cc(S(=O)(=O)N2CC3(CN(C(=O)N4CC5(CC(n6cnc(C7CC7)n6)C5)C4)C3)C2)cn1 [Example 331, [6-(3-cyclopropyl-1,2,4-triazol-1-yl)-2-azaspiro[3.3]heptan-2-yl]-[2-(1-methylpyrazol-4-yl)sulfonyl-2,6-diazaspiro[3.3]heptan-6-yl]methanone]
3 | 904 nM | NC(=O)C(c1ccc(F)cc1)N1CCN(C(=O)N2CC3(CC(n4cnc(C5CC5)n4)C3)C2)CC1 (centres unmarked) [Example 332, 2-[4-[6-(3-cyclopropyl-1,2,4-triazol-1-yl)-2-azaspiro[3.3]heptane-2-carbonyl]piperazin-1-yl]-2-(4-fluorophenyl)acetamide]
4 | 949 nM | O=C(N1CC(c2nnc(CC3CC3)[nH]2)C1)N1CC2(CC(n3cnc(C4CC4)n3)C2)C1 [Example 333, [3-[5-(cyclopropylmethyl)-4H-1,2,4-triazol-3-yl]azetidin-1-yl]-[6-(3-cyclopropyl-1,2,4-triazol-1-yl)-2-azaspiro[3.3]heptan-2-yl]methanone]
5 | 993 nM | CNC(=O)c1ccccc1S(=O)(=O)N1CC2(CN(C(=O)N3CC4(CC(n5cnc(C6CC6)n5)C4)C3)C2)C1 [Example 334]
6 | 1400 nM | CNC(=O)[C@@H](c1ccc(F)cc1)N1CCN(C(=O)N2CC3(CC(n4cnc(C5CC5)n4)C3)C2)CC1 [Example 335, (2R)-2-[4-[6-(3-cyclopropyl-1,2,4-triazol-1-yl)-2-azaspiro[3.3]heptane-2-carbonyl]piperazin-1-yl]-2-(4-fluorophenyl)-N-methyl-acetamide]
7 | 1440 nM | O=C(N1CCC(NS(=O)(=O)c2ccc(F)cc2)CC1)N1CC2(CC(n3cnc(C4CC4)n3)C2)C1 [Example 336, N-[1-[6-(3-cyclopropyl-1,2,4-triazol-1-yl)-2-azaspiro[3.3]heptane-2-carbonyl]-4-piperidyl]-4-fluoro-benzenesulfonamide]
8 | 1830 nM | O=C(N1CC2(CC(n3cnc(C4CC4)n3)C2)C1)N1CC2(C1)CN(C(=O)C(F)(F)F)C2 [Example 337, 1-[2-[6-(3-cyclopropyl-1,2,4-triazol-1-yl)-2-azaspiro[3.3]heptane-2-carbonyl]-2,6-diazaspiro[3.3]heptan-6-yl]-2,2,2-trifluoro-ethanone]
9 | 2150 nM | O=C(O)c1ccccc1S(=O)(=O)N1CC2(CN(C(=O)N3CC4(CC(n5cnc(C6CC6)n5)C4)C3)C2)C1 [Example 338, 2-[[6-[6-(3-cyclopropyl-1,2,4-triazol-1-yl)-2-azaspiro[3.3]heptane-2-carbonyl]-2,6-diazaspiro[3.3]heptan-2-yl]sulfonyl]benzoic acid]
10 | 3010 nM | O=C(N1CC2(CC(n3cnc(C4CC4)n3)C2)C1)N1CC2(C1)CN(S(=O)(=O)C1CS(=O)(=O)C1)C2 [Example 339, [6-(3-cyclopropyl-1,2,4-triazol-1-yl)-2-azaspiro[3.3]heptan-2-yl]-[2-(1,1-dioxothietan-3-yl)sulfonyl-2,6-diazaspiro[3.3]heptan-6-yl]methanone]
11 | 3190 nM | CNC(=O)C(c1ccc(F)cc1)N1CCN(C(=O)N2CC3(CC(n4cnc(C5CC5)n4)C3)C2)CC1 (centres unmarked) [Example 340, 2-[4-[6-(3-cyclopropyl-1,2,4-triazol-1-yl)-2-azaspiro[3.3]heptane-2-carbonyl]piperazin-1-yl]-2-(4-fluorophenyl)-N-methyl-acetamide]
12 | 491 nM | O=C(N1CC2(CC(Cc3ccc(F)cc3F)C2)C1)N1CC2(CC(c3ccc(F)cc3)C2)C1 [Example 343, [6-[(2,4-difluorophenyl)methyl]-2-azaspiro[3.3]heptan-2-yl]-[6-(4-fluorophenyl)-2-azaspiro[3.3]heptan-2-yl]methanone]
13 | 1.62 nM | CS(=O)(=O)c1cc(Cl)ccc1-c1ccc(C2CN(C(=O)N3CC4(CC(c5cnc(C(F)(F)F)nc5)C4)C3)C2)cc1 [Example 344, [3-[4-(4-chloro-2-methylsulfonyl-phenyl)phenyl]azetidin-1-yl]-[6-[2-(trifluoromethyl)pyrimidin-5-yl]-2-azaspiro[3.3]heptan-2-yl]methanone]
14 | 28.9 nM | O=C(N1CC2(CC(Cc3ccc(F)cc3F)C2)C1)N1CC2(CC(c3ccc(S(=O)(=O)C(F)(F)F)cc3)C2)C1 [Example 345, [6-[(2,4-difluorophenyl)methyl]-2-azaspiro[3.3]heptan-2-yl]-[6-[4-(trifluoromethylsulfonyl)phenyl]-2-azaspiro[3.3]heptan-2-yl]methanone]
15 | 15.7 nM | CS(=O)(=O)c1ccc(C2CC3(C2)CN(C(=O)N2CC4(CC(Cc5ccc(F)cc5F)C4)C2)C3)cc1 [Example 346, [6-[(2,4-difluorophenyl)methyl]-2-azaspiro[3.3]heptan-2-yl]-[6-(4-methylsulfonylphenyl)-2-azaspiro[3.3]heptan-2-yl]methanone]
16 | 833 nM | CS(=O)(=O)c1cc(C(F)(F)F)ccc1C1CC2(C1)CN(C(=O)N1CC3(CC(Cc4ccc(F)cc4F)C3)C1)C2 [Example 347, [6-[(2,4-difluorophenyl)methyl]-2-azaspiro[3.3]heptan-2-yl]-[6-[2-methylsulfonyl-4-(trifluoromethyl)phenyl]-2-azaspiro[3.3]heptan-2-yl]methanone]
17 | 66.3 nM | O=C(N1CC2(CC(Cc3ccc(Cl)cn3)C2)C1)N1CC2(C1)CN(c1cncc(F)c1)C2 [Example 348, [6-[(5-chloro-2-pyridyl)methyl]-2-azaspiro[3.3]heptan-2-yl]-[6-(5-fluoro-3-pyridyl)-2,6-diazaspiro[3.3]heptan-2-yl]methanone]
18 | 11.9 nM | CC(C)(C)Cn1nncc1-c1ccc(C2CN(C(=O)N3CC4(C3)CN(c3cncc(F)c3)C4)C2)cc1 [Example 349, [3-[4-[3-(2,2-dimethylpropyl)triazol-4-yl]phenyl]azetidin-1-yl]-[6-(5-fluoro-3-pyridyl)-2,6-diazaspiro[3.3]heptan-2-yl]methanone]
19 | 12.8 nM | CS(=O)(=O)c1cc(Cl)ccc1-c1ccc(C2CN(C(=O)N3CC4(C3)CN(c3cncc(F)c3)C4)C2)cc1 [Example 350, [3-[4-(4-chloro-2-methylsulfonyl-phenyl)phenyl]azetidin-1-yl]-[6-(5-fluoro-3-pyridyl)-2,6-diazaspiro[3.3]heptan-2-yl]methanone]
20 | 2.4 nM | O=C(N1CC2(CC(n3cnc(C(F)(F)F)n3)C2)C1)N1CC2(CN(Cc3ccc(S(=O)(=O)C(F)(F)F)cc3)C2)C1 [Example 353, [6-[[4-(trifluoromethylsulfonyl)phenyl]methyl]-2,6-diazaspiro[3.3]heptan-2-yl]-[6-[3-(trifluoromethyl)-1,2,4-triazol-1-yl]-2-azaspiro[3.3]heptan-2-yl]methanone]
21 | 19.2 nM | CS(=N)(=O)c1cc(F)ccc1CC1CC2(C1)CN(C(=O)N1CC3(CC(n4cnc(C5(O)CC5)n4)C3)C1)C2 (centres unmarked) [Example 354, [6-[[4-fluoro-2-(methylsulfonimidoyl)phenyl]methyl]-2-azaspiro[3.3]heptan-2-yl]-[6-[3-(1-hydroxycyclopropyl)-1,2,4-triazol-1-yl]-2-azaspiro[3.3]heptan-2-yl]methanone]
22 | 134 nM | Cc1cc(C2CC2)n(C23CC(C4CN(C(=O)N5CC6(CC(n7cnc(C8(O)CC8)n7)C6)C5)C4)(C2)C3)n1 [Example 355, [3-[3-(5-cyclopropyl-3-methyl-pyrazol-1-yl)-1-bicyclo[1.1.1]pentanyl]azetidin-1-yl]-[6-[3-(1-hydroxycyclopropyl)-1,2,4-triazol-1-yl]-2-azaspiro[3.3]heptan-2-yl]methanone]
23 | 1090 nM | Cc1cc(C)n(C23CC(C4CN(C(=O)N5CC6(CC(n7cnc(C8(O)CC8)n7)C6)C5)C4)(C2)C3)n1 [Example 356, [3-[3-(3,5-dimethylpyrazol-1-yl)-1-bicyclo[1.1.1]pentanyl]azetidin-1-yl]-[6-[3-(1-hydroxycyclopropyl)-1,2,4-triazol-1-yl]-2-azaspiro[3.3]heptan-2-yl]methanone]
24 | 2.01 nM | O=C(N1CC2(CC(Cc3ccc4[nH]ncc4n3)C2)C1)N1CC2(CC(n3cnc(C4CC4)n3)C2)C1 [Example 357, [6-(3-cyclopropyl-1,2,4-triazol-1-yl)-2-azaspiro[3.3]heptan-2-yl]-[6-(1H-pyrazolo[4,3-b]pyridin-5-ylmethyl)-2-azaspiro[3.3]heptan-2-yl]methanone]
25 | 30.6 nM | O=C(N1CC2(CC(Cc3ccc(F)cc3F)C2)C1)N1CC2(CC(c3ccc(C(F)(F)F)nc3)C2)C1 [Example 358, [6-[(2,4-difluorophenyl)methyl]-2-azaspiro[3.3]heptan-2-yl]-[6-[6-(trifluoromethyl)-3-pyridyl]-2-azaspiro[3.3]heptan-2-yl]methanone]
26 | 1 nM | CS(=O)(=O)c1cc(CC2CC3(C2)CN(C(=O)N2CC4(CC(n5cnc(C6(O)CC6)n5)C4)C2)C3)cc(C(F)(F)F)c1 [Example 359, [6-[3-(1-hydroxycyclopropyl)-1,2,4-triazol-1-yl]-2-azaspiro[3.3]heptan-2-yl]-[6-[[3-methylsulfonyl-5-(trifluoromethyl)phenyl]methyl]-2-azaspiro[3.3]heptan-2-yl]methanone]
